The pIC50 is the negative decadic logarithm of the IC50, by convention in mol/L. Higher therefore signals a small IC50.

This is an account of results in patent US20260374756A1, “HETEROCYCLIC COMPOUNDS AS INHIBITORS OF MONOACYLGLYCEROL LIPASE (MAGL)” (Hoffmann-La Roche Inc., priority 2022, published 2026).

pIC50: −log10 of the molar value.

This assay deals with T1, hMAGL (Homo sapiens, UniProt Q99685).
T1 sequence (Q99685 1-303): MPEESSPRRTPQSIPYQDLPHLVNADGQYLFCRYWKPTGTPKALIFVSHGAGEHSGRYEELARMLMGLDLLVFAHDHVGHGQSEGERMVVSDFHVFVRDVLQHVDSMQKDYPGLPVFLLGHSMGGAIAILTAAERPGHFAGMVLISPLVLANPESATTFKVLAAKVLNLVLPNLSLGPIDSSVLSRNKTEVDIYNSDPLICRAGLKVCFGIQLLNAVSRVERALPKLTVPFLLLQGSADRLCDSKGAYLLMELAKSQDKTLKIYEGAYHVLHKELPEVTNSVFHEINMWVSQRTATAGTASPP
Kind of assay: 2-AG assay: MAGL inhibition, hydrolysis of 2-arachidonoylglycerol to arachidonic acid followed by mass spectrometry. It is filed as biochemical. The gist of the method:
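Read-out is LC-MS/MS of arachidonic acid released from 2-arachidonoylglycerol (8 μM final), normalised to d8-arachidonic acid internal standard after acetonitrile quench. Enzyme […] and compound were pre-mixed 15 min, then reacted 30 min, both at RT, in Tris/EDTA buffer with 0.01% Tween-20 and 2.5% DMSO.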
For `Cn1nnc(CN2CC3(C2)CN(C(=O)N2CC4(CC(n5cnc(C6CC6)n5)C4)C2)C3)c1C(F)(F)F` [Example 244, [6-(3-cyclopropyl-1,2,4-triazol-1-yl)-2-azaspiro[3.3]heptan-2-yl]-[6-[[1-methyl-5-(trifluoromethyl)triazol-4-yl]methyl]-2,6-diazaspiro[3.3]heptan-2-yl]methanone], the pIC50 is 7.64.
The value for `Cn1cc(CN2CC3(C2)CN(C(=O)N2CC4(CC(n5cnc(C(F)(F)F)n5)C4)C2)C3)c(C(F)(F)F)n1` [Example 191, [6-[[1-methyl-3-(trifluoromethyl)pyrazol-4-yl]methyl]-2,6-diazaspiro[3.3]heptan-2-yl]-[6-[3-(trifluoromethyl)-1,2,4-triazol-1-yl]-2-azaspiro[3.3]heptan-2-yl]methanone] was 6.81; that for `O=C(N1CC2(CC(n3cnc(C4CC4)n3)C2)C1)N1CC2(CN(Cc3conc3C(F)(F)F)C2)C1` [Example 219, [6-(3-cyclopropyl-1,2,4-triazol-1-yl)-2-azaspiro[3.3]heptan-2-yl]-[6-[[3-(trifluoromethyl)isoxazol-4-yl]methyl]-2,6-diazaspiro[3.3]heptan-2-yl]methanone] was 8.05; that for `Cn1nc(CN2CC3(C2)CN(C(=O)N2CC4(CC(n5cnc(C(F)(F)F)n5)C4)C2)C3)cc1C(F)(F)F` [Example 161, [6-[[1-methyl-5-(trifluoromethyl)pyrazol-3-yl]methyl]-2,6-diazaspiro[3.3]heptan-2-yl]-[6-[3-(trifluoromethyl)-1,2,4-triazol-1-yl]-2-azaspiro[3.3]heptan-2-yl]methanone] was 8.62.
`CC(C)(C)c1nnc(CN2CC3(C2)CN(C(=O)N2CC4(CC(n5cnc(C6CC6)n5)C4)C2)C3)s1` [Example 209, [6-[(5-tert-butyl-1,3,4-thiadiazol-2-yl)methyl]-2,6-diazaspiro[3.3]heptan-2-yl]-[6-(3-cyclopropyl-1,2,4-triazol-1-yl)-2-azaspiro[3.3]heptan-2-yl]methanone] gave a pIC50 of 8.28.
The value for `Cn1ncc(CN2CC3(C2)CN(C(=O)N2CC4(CC(n5cnc(C(F)(F)F)n5)C4)C2)C3)c1C(F)(F)F` [Example 164, [6-[[1-methyl-5-(trifluoromethyl)pyrazol-4-yl]methyl]-2,6-diazaspiro[3.3]heptan-2-yl]-[6-[3-(trifluoromethyl)-1,2,4-triazol-1-yl]-2-azaspiro[3.3]heptan-2-yl]methanone] was 7.56; that for `O=C(N1CC2(CC(n3cnc(C4CC4)n3)C2)C1)N1CC2(CN(Cc3cc[nH]n3)C2)C1` [Example 257, [6-(3-cyclopropyl-1,2,4-triazol-1-yl)-2-azaspiro[3.3]heptan-2-yl]-[6-(1H-pyrazol-3-ylmethyl)-2,6-diazaspiro[3.3]heptan-2-yl]methanone] was 5.79; that for `O=C(N1CC2(CC(n3cnc(C(F)(F)F)n3)C2)C1)N1CC2(CN(Cc3ncc(C(F)(F)F)[nH]3)C2)C1` [Example 231, [6-[[5-(trifluoromethyl)-1H-imidazol-2-yl]methyl]-2,6-diazaspiro[3.3]heptan-2-yl]-[6-[3-(trifluoromethyl)-1,2,4-triazol-1-yl]-2-azaspiro[3.3]heptan-2-yl]methanone] was 6.59.
`Cn1nccc1CN1CC2(C1)CN(C(=O)N1CC3(CC(n4cnc(C5CC5)n4)C3)C1)C2` [Example 277, [6-(3-cyclopropyl-1,2,4-triazol-1-yl)-2-azaspiro[3.3]heptan-2-yl]-[6-[(2-methylpyrazol-3-yl)methyl]-2,6-diazaspiro[3.3]heptan-2-yl]methanone] had a pIC50 of 6.45. This pIC50 and that of the compound before are within 0.2 log units of each other.
The value for `O=C(N1CC2(CC(n3cnc(C4CC4)n3)C2)C1)N1CC2(CN(Cc3cc(C(F)(F)F)sn3)C2)C1` [Example 156, [6-(3-cyclopropyl-1,2,4-triazol-1-yl)-2-azaspiro[3.3]heptan-2-yl]-[6-[[5-(trifluoromethyl)isothiazol-3-yl]methyl]-2,6-diazaspiro[3.3]heptan-2-yl]methanone] was 8.42; that for `Cn1nc(CC2CC3(C2)CN(C(=O)N2CC4(CC(n5cnc(C6(O)CC6)n5)C4)C2)C3)cc1C(F)(F)F` [Example 2, [6-[3-(1-hydroxycyclopropyl)-1,2,4-triazol-1-yl]-2-azaspiro[3.3]heptan-2-yl]-[6-[[1-methyl-5-(trifluoromethyl)pyrazol-3-yl]methyl]-2-azaspiro[3.3]heptan-2-yl]methanone] was 9.21; that for `Cn1ncc(P(C)(C)=O)c1CN1CC2(C1)CN(C(=O)N1CC3(CC(n4cnc(C5CC5)n4)C3)C1)C2` [Example 228, [6-(3-cyclopropyl-1,2,4-triazol-1-yl)-2-azaspiro[3.3]heptan-2-yl]-[6-[(4-dimethylphosphoryl-2-methyl-pyrazol-3-yl)methyl]-2,6-diazaspiro[3.3]heptan-2-yl]methanone] was 6.68.
The value for `O=C(N1CC2(CCN(Cc3cc(C(F)(F)F)[nH]n3)CC2)C1)N1CC2(CC(n3cnc(C(F)(F)F)n3)C2)C1` [Example 28] was 7.69; that for `O=C(N1CC2(CC(Cc3nc(C(F)(F)F)ns3)C2)C1)N1CC2(CC(n3cnc(C4(O)CC4)n3)C2)C1` [Example 17, [6-[3-(1-hydroxycyclopropyl)-1,2,4-triazol-1-yl]-2-azaspiro[3.3]heptan-2-yl]-[6-[[3-(trifluoromethyl)-1,2,4-thiadiazol-5-yl]methyl]-2-azaspiro[3.3]heptan-2-yl]methanone] was 7.76.
As to `O=C(N1CC2(CCN(Cc3cc(C(F)(F)F)on3)CC2)C1)N1CC2(CC(n3cnc(C4(O)CC4)n3)C2)C1` [Example 81, [6-[3-(1-hydroxycyclopropyl)-1,2,4-triazol-1-yl]-2-azaspiro[3.3]heptan-2-yl]-[7-[[5-(trifluoromethyl)isoxazol-3-yl]methyl]-2,7-diazaspiro[3.5]nonan-2-yl]methanone], the pIC50 is 6.60.
Compound `O=C(N1CC2(CC(n3cnc(C(F)(F)F)n3)C2)C1)N1CC2(CN(Cc3ncoc3C(F)(F)F)C2)C1` [Example 220] had a pIC50 of 6.75.
The value for `O=C(N1CC2(CC(Cn3cnc(C4(C(F)(F)F)CC4)n3)C2)C1)N1CC2(CC(n3cnc(C4(O)CC4)n3)C2)C1` [Example 75, [6-[3-(1-hydroxycyclopropyl)-1,2,4-triazol-1-yl]-2-azaspiro[3.3]heptan-2-yl]-[6-[[3-[1-(trifluoromethyl)cyclopropyl]-1,2,4-triazol-1-yl]methyl]-2-azaspiro[3.3]heptan-2-yl]methanone] was 8.12; that for `O=C(N1CC2(CC(Cc3cn(CC(F)(F)F)nc3C(F)(F)F)C2)C1)N1CC2(CC(n3cnc(C4CC4)n3)C2)C1` [Example 122] was 10.10; that for `CC(C)(C)c1csc(CN2CC3(C2)CN(C(=O)N2CC4(CC(n5cnc(C6CC6)n5)C4)C2)C3)n1` [Example 201, [6-[(4-tert-butylthiazol-2-yl)methyl]-2,6-diazaspiro[3.3]heptan-2-yl]-[6-(3-cyclopropyl-1,2,4-triazol-1-yl)-2-azaspiro[3.3]heptan-2-yl]methanone] was 9.19.
The value for `O=C(N1CC2(CC(Cc3nc(C(F)(F)F)cs3)C2)C1)N1CC2(CC(n3cnc(C4(O)CC4)n3)C2)C1` [Example 106, [6-[3-(1-hydroxycyclopropyl)-1,2,4-triazol-1-yl]-2-azaspiro[3.3]heptan-2-yl]-[6-[[4-(trifluoromethyl)thiazol-2-yl]methyl]-2-azaspiro[3.3]heptan-2-yl]methanone] was 8.05.
